Columns and labels:
[1] = tested on: interferon-treated murine peritoneal macrophages; assay: Nitrite/nitrate (nitrogen monoxide) release on stimulation of interferon-treated murine peritoneal macrophages; assay type: cell-based; conditions: mouse system
Description: The lipopeptide is prepared from Mycoplasma fermentans (for example PG18). The isolation of the lipopeptide from mycoplasma is carried out by the following known separation procedure (Mühlradt et al. in Biochemistry, 35 (1996) 7781-7786). • (i) Delipidation of the mycoplasma using chloroform/methanol. • (ii) Extraction of the delipidated mycoplasma using hot 25 mM octyl glucoside. • (iii) Dialysis of the detergent extract. • (iv) Concentration of the extract by lyophilisation. • (v) Reversed-phase chromatography on a C8 column using a water/2-propanol gradient. Detection of the biological activity is effected by measuring nitrite and nitrate as the secondary products of nitrogen monoxide, which is liberated on stimulation of interferon-treated murine peritoneal macrophages.
Immun., 59 (1991) 3962-3968 and Feng & Lo in Infect. Immun., 62 (1994) 3916-3921. Its half-maximum effective concentration (Max/2) is 20 pg/ml or 10^−11 M in the mouse system. That effective concentration is lower by a factor of from 10^2 to 10^3 than the corresponding known concentrations of similar natural or synthetic lipopeptides.

macrophages of mice = conditions: cited from earlier work
macrophages of humans = conditions: cited from earlier work

Dhc-GNN DES NIS FKE K: S-(2,3-dihydroxypropyl)-cysteine peptide from Mycoplasma fermentans with two ester-bonded long-chain fatty acids (C16:0 and C18:0/C18:1)
half-maximum effective concentration (Max/2) [1]: 20 pg/mL
EC50 ([1]; read-out: half-maximum effective concentration (Max/2)): 0.01 nM
release of cytokines and prostaglandins from macrophages (macrophages of mice): stimulating macrophages of mice and humans to release cytokines and prostaglandins
release of cytokines and prostaglandins from macrophages (macrophages of humans): stimulating macrophages of mice and humans to release cytokines and prostaglandins

Source: patent US7435790B2, “Dihydroxypropyl cysteine peptide and agent containing this peptide” (Helmholtz-Zentrum fuer Infektionsforschung GmbH, priority 1996, dated 2008)
